Type in all cases: in vivo
Experiment [1] concerns Cyperus serotinus. Briefly: Pre-emergence herbicidal action, CYPES. Particulars: dosage 320 g/ha, scored visually after 3 weeks vs untreated controls. In a few lines:
(§1)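 Percent herbicidal activity rated by eye 3 weeks after pre-emergence soil-surface application, compared with untreated pots. Seeds sat under sandy loam; sprays carried 0.2% wetting agent.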

Experiment [2] relates to Stellaria media. Briefly: Post-emergence herbicidal action, STEME. The settings on record: 80 g/ha, Table D. In a few lines:
(§2)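 Greenhouse-grown plants were sprayed at the one-leaf stage, 2–3 weeks after sowing. Damage was scored visually after about 3 weeks against untreated controls, as % action (100% = dead, 0% = like control).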

Experiment [3] deals with Matricaria inodora. Briefly: Pre-emergence herbicidal action, MATIN. The settings on record: dosage 320 g/ha, scored visually after 3 weeks vs untreated controls. The gist of the method:
as §1

Experiment [4] concerns Pharbitis purpureum. Briefly: Post-emergence herbicidal action, PHBPU. Particulars: 80 g/ha, Table D. In a few lines: as §2
Experiment [5] has as its system Viola tricolor. Briefly: Pre-emergence herbicidal action, VIOTR. The settings on record: dosage 320 g/ha, scored visually after 3 weeks vs untreated controls. The gist of the method:
as §1

Experiment [6] concerns Avena fatua. Briefly: Post-emergence herbicidal action, AVEFA. The settings on record: 80 g/ha, Table C. In a few lines: as §2
The test system of experiment [7] is Stellaria media. As to the kind of experiment: Pre-emergence herbicidal action, STEME. The settings on record: dosage 320 g/ha, scored visually after 3 weeks vs untreated controls. The gist of the method: as §1
In experiment [8] the test system is Alopecurus myosuroides. As to the kind of experiment: Pre-emergence herbicidal action, ALOMY. The settings on record: dosage 320 g/ha, scored visually after 3 weeks vs untreated controls. In a few lines:
as §1

For experiment [9], the system named is Viola tricolor. Briefly: Post-emergence herbicidal action, VIOTR. The settings on record: 80 g/ha, Table D. In a few lines:
as §2

Experiment [10] deals with Amaranthus retroflexus. Briefly: Pre-emergence herbicidal action, AMARE. The settings on record: dosage 320 g/ha, scored visually after 3 weeks vs untreated controls. The gist of the method:
as §1

Experiment [11] has as its system Setaria viridis. Briefly: Post-emergence herbicidal action, SETVI. Particulars: 80 g/ha, Table C. In a few lines: as §2
For experiment [12], the system named is Abutilon theophrasti. As to the kind of experiment: Post-emergence herbicidal action, ABUTH. The settings on record: 80 g/ha, Table D. The gist of the method: as §2
The subject of experiment [13] is Alopecurus myosuroides. Briefly: Post-emergence herbicidal action, ALOMY. The settings on record: 80 g/ha, Table C. The gist of the method: as §2
Experiment [14] relates to Abutilon theophrasti. Briefly: Pre-emergence herbicidal action, ABUTH. The settings on record: dosage 320 g/ha, scored visually after 3 weeks vs untreated controls. In a few lines:
as §1

For experiment [15], the system named is ECHCG. As to the kind of experiment: Post-emergence herbicidal action, ECHCG. Particulars: 80 g/ha, Table C. In a few lines: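 Weed and crop plants grown in sandy loam in the greenhouse, treated at the one-leaf stage 2–3 weeks after sowing. Damage scored visually after about 3 weeks vs untreated controls (0% = control, 100% = dead).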
For experiment [16], the system named is Setaria viridis. Briefly: Pre-emergence herbicidal action, SETVI. The settings on record: dosage 320 g/ha, scored visually after 3 weeks vs untreated controls. In a few lines: as §1
Experiment [17] relates to Amaranthus retroflexus. Briefly: Post-emergence herbicidal action, AMARE. The settings on record: 80 g/ha, Table D. The gist of the method:
as §2

In experiment [18] the test system is Avena fatua. Briefly: Pre-emergence herbicidal action, AVEFA. The settings on record: dosage 320 g/ha, scored visually after 3 weeks vs untreated controls. The gist of the method: as §1

The results in this text go back to patent US20230183193A1, “4-DIFLUOROMETHYL BENZOYL AMIDES WITH HERBICIDAL ACTION” (BAYER CROPSCIENCE AKTIENGESELLSCHAFT, priority 2017, published 2023).

Consider `CSc1c(C(F)F)ccc(C(=O)Nc2ncnn2C)c1Br` [Example 4-61], for which the “herbicidal activity CYPES” value in [1] came to 90%. Besides, the “Herbicidal activity STEME” value is given as 100% in [2] and 90% in experiment [7]. For the same compound, in experiment [3], the “herbicidal activity MATIN” value was 100%. Further, the “Herbicidal activity PHBPU” value in experiment [4] turned out to be 100%. The “herbicidal activity VIOTR” value in [5] and in experiment [9] was 100% throughout. For the same compound, the figures for the “herbicidal activity AVEFA” value in experiment [6] and in [18] were 100% and 90%, respectively. The “herbicidal activity ALOMY” value in experiment [8] and in experiment [13] was 100% throughout. The “herbicidal activity AMARE” value in experiment [10] and in experiment [17] was 100% throughout. The “herbicidal activity SETVI” value in [11] and in experiment [16] was 100% each time. The “herbicidal activity ABUTH” value in experiment [12] and in experiment [14] was 100% each time. In addition, the “Herbicidal activity ECHCG” value in [15] came out at 100%.

Turning to `CCS(=O)(=O)c1c(C(F)F)ccc(C(=O)Nc2nonc2Cl)c1C` [Example 6-6], in experiment [1], the “herbicidal activity CYPES” value stood at 80%. In addition, the “Herbicidal activity STEME” value is 100% in experiment [2] and 90% in experiment [7]. Besides, the “herbicidal activity MATIN” value in experiment [3] worked out at 100%. In experiment [4], the “Herbicidal activity PHBPU” value is 100%. The “herbicidal activity VIOTR” value in experiment [5] and in experiment [9] was 100% in each case. In addition, the “herbicidal activity AVEFA” value amounted to 80% in experiment [6] and 90% in experiment [18]. For the same compound, the “herbicidal activity ALOMY” value in experiment [8] is 90%; in [13] it was 80%. Also, the entries for the “herbicidal activity AMARE” value in experiment [10] and in experiment [17] were 90% and 80%, respectively. Besides, the results for the “herbicidal activity SETVI” value in [11] and in [16] were 90% and 100%, respectively. In addition, the “herbicidal activity ABUTH” value in [12] is reported as 80%; in [14], 100%. For the same compound, the “Herbicidal activity ECHCG” value in [15] is reported as 90%.

In the case of `CCc1c(C(=O)Nc2nnc(C)o2)ccc(C(F)F)c1[S+](C)[O-]` (stereo not drawn) [Example 7-12], the “herbicidal activity CYPES” value in experiment [1] is given as 100%. In addition, the “Herbicidal activity STEME” value in experiment [2] and in [7] was 100% throughout. Further, the “herbicidal activity MATIN” value in experiment [3] was 100%. Moreover, in [4], the “Herbicidal activity PHBPU” value is recorded as 90%. Also, the “herbicidal activity VIOTR” value in experiment [5] and in [9] was 100% throughout. Besides, the “herbicidal activity AVEFA” value in [6] is 90%; in experiment [18] it was 100%. The “herbicidal activity ALOMY” value in experiment [8] worked out at 100%; in experiment [13] it was 90%. The “herbicidal activity AMARE” value in experiment [10] and in experiment [17] was 100% throughout. Moreover, the “herbicidal activity SETVI” value in [11] was 90%; in [16] it was 100%. The “herbicidal activity ABUTH” value in [12] and in experiment [14] was 100% in each case. In addition, the “Herbicidal activity ECHCG” value in [15] stood at 100%.

As to `CCc1c(C(=O)Nc2nnc(C)o2)ccc(C(F)F)c1S(C)(=O)=O` [Example 7-13], the “herbicidal activity CYPES” value in [1] came out at 100%. In addition, the “Herbicidal activity STEME” value in [2] and in [7] was 100% in each case. The “herbicidal activity MATIN” value in experiment [3] is 100%. The “Herbicidal activity PHBPU” value in experiment [4] is 100%. The “herbicidal activity VIOTR” value in [5] and in experiment [9] was 100% throughout. The “herbicidal activity AVEFA” value in experiment [6] and in experiment [18] was 100% throughout. Further, the “herbicidal activity ALOMY” value is 100% in experiment [8] and 90% in experiment [13]. In addition, the “herbicidal activity AMARE” value in experiment [10] and in experiment [17] was 100% throughout. In addition, the “herbicidal activity SETVI” value in experiment [11] and in [16] was 100% throughout. Moreover, the “herbicidal activity ABUTH” value in experiment [12] and in experiment [14] was 100% each time. Also, the “Herbicidal activity ECHCG” value in experiment [15] was determined as 100%.

Turning to `CCSc1c(C(F)F)ccc(C(=O)Nc2nnc(C)o2)c1CC` [Example 7-14], the “herbicidal activity CYPES” value in experiment [1] is 100%. For the same compound, the “Herbicidal activity STEME” value in experiment [2] and in [7] was 100% in each case. Besides, the “herbicidal activity MATIN” value in experiment [3] came to 90%. Moreover, the “Herbicidal activity PHBPU” value in experiment [4] stood at 90%. Besides, the “herbicidal activity VIOTR” value in experiment [5] and in [9] was 100% in each case. For the same compound, the “herbicidal activity AVEFA” value in experiment [6] and in experiment [18] was 100% each time. For the same compound, the “herbicidal activity ALOMY” value in experiment [8] is listed as 100%; in experiment [13], 90%. The “herbicidal activity AMARE” value in [10] and in experiment [17] was 100% in each case. For the same compound, the “herbicidal activity SETVI” value in experiment [11] is 90%; in [16] it was 100%. Besides, the “herbicidal activity ABUTH” value in [12] and in experiment [14] was 100% each time. Moreover, the “Herbicidal activity ECHCG” value in [15] is given as 90%.

Consider `CCc1c(C(=O)Nc2nnc(C)o2)ccc(C(F)F)c1[S+]([O-])CC` (stereo not drawn) [Example 7-15], for which, in experiment [1], the “herbicidal activity CYPES” value was determined as 100%. For the same compound, the “Herbicidal activity STEME” value in experiment [2] and in experiment [7] was 100% in each case. Besides, in experiment [3], the “herbicidal activity MATIN” value stood at 100%. In addition, the “Herbicidal activity PHBPU” value in experiment [4] came out at 90%. In addition, the “herbicidal activity VIOTR” value in experiment [5] and in [9] was 100% in each case. In addition, the “herbicidal activity AVEFA” value in [6] and in experiment [18] was 100% in each case. For the same compound, the “herbicidal activity ALOMY” value came to 100% in experiment [8] and 90% in experiment [13]. Besides, the “herbicidal activity AMARE” value in experiment [10] and in experiment [17] was 100% throughout. Moreover, the “herbicidal activity SETVI” value in [11] and in experiment [16] was 100% throughout. The “herbicidal activity ABUTH” value in [12] and in experiment [14] was 100% each time. Moreover, the “Herbicidal activity ECHCG” value in [15] turned out to be 90%.

For the compound `CCc1c(C(=O)Nc2nnc(C)o2)ccc(C(F)F)c1S(=O)(=O)CC` [Example 7-16], the “herbicidal activity CYPES” value in experiment [1] worked out at 100%. The “Herbicidal activity STEME” value in experiment [2] and in experiment [7] was 100% in each case. Besides, the “herbicidal activity MATIN” value in experiment [3] was determined as 100%. The “Herbicidal activity PHBPU” value in experiment [4] is on record as 90%. For the same compound, the “herbicidal activity VIOTR” value in experiment [5] and in [9] was 100% each time. Further, the entries for the “herbicidal activity AVEFA” value in experiment [6] and in experiment [18] were 90% and 100%, respectively. The “herbicidal activity ALOMY” value in [8] worked out at 100%; in [13], 90%. The “herbicidal activity AMARE” value in experiment [10] and in [17] was 100% throughout. For the same compound, the “herbicidal activity SETVI” value in experiment [11] and in experiment [16] was 100% in each case. The “herbicidal activity ABUTH” value in [12] and in experiment [14] was 100% each time. Also, in experiment [15], the “Herbicidal activity ECHCG” value came to 90%.

For `CSc1c(C(F)F)ccc(C(=O)Nc2nnc(C)o2)c1Cl` [Example 7-47], the “herbicidal activity CYPES” value in experiment [1] came to 80%. In addition, the entries for the “Herbicidal activity STEME” value in experiment [2] and in experiment [7] were 100% and 90%, respectively. Besides, the “herbicidal activity MATIN” value in [3] is listed as 100%. Moreover, the “Herbicidal activity PHBPU” value in [4] was 90%. The “herbicidal activity VIOTR” value in experiment [5] and in experiment [9] was 100% in each case. For the same compound, the “herbicidal activity AVEFA” value in experiment [6] is reported as 100%; in [18], 90%. The “herbicidal activity ALOMY” value in [8] is recorded as 90%; in experiment [13] it was 80%. The entries for the “herbicidal activity AMARE” value in experiment [10] and in [17] were 100% and 90%, respectively. Also, the “herbicidal activity SETVI” value in experiment [11] and in experiment [16] was 100% in each case. In addition, the entries for the “herbicidal activity ABUTH” value in experiment [12] and in experiment [14] were 90% and 100%, respectively. Further, in [15], the “Herbicidal activity ECHCG” value stood at 100%.
